Legend:
[1] = parameters: method as in earlier work; details: liver metabolites of EMHPS; cited from earlier work
SLCO1B1 = molecular target: T1, SLCO1B1 (Homo sapiens, UniProt Q9Y6L6); assay: Inhibition of SLCO1B1-mediated uptake of atorvastatin in HEK293-SLCO1B1 cells; format: in vitro ADME; parameters: The SLCO1B1 gene was obtained via synthesis and was cloned into the pEGFP-N1 vector; expressed in transfected cells; host or cells: HEK293
T1 sequence (Q9Y6L6 1-691): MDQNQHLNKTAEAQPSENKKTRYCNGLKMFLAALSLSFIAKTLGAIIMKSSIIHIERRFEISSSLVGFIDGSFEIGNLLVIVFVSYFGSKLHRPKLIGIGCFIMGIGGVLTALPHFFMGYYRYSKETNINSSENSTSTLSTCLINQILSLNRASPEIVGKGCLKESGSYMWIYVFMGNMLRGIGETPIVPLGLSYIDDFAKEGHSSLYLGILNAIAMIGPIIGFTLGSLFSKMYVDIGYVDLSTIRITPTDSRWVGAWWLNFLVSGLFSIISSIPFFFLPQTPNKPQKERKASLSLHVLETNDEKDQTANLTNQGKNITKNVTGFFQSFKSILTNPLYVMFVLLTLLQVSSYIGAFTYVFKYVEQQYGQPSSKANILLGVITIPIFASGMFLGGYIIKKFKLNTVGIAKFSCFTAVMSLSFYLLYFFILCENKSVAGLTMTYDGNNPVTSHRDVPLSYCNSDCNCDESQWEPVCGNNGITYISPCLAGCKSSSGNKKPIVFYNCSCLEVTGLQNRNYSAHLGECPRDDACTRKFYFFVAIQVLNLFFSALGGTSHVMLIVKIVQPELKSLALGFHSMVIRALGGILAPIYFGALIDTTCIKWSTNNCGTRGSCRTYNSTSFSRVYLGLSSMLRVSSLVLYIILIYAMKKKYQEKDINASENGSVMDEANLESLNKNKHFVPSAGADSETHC
Description: As a positive inhibition control, rifampicin at similar concentrations was used. Three independent experiments were performed. […] Proteins were precipitated by adding acetonitrile in a 1:1 ratio to the sample. […] The mobile phase gradient program was as follows: 0-0.6 min-35% A and 65% B, 0.6-5.0 min-5% A and 95% B, 5.0-8.0 min-35% A and 65% B. The flow rate and the column temperature were maintained at 300 μL/min and 35 °C. Aliquots (2 μL) of the extracted samples were injected.

ABCB1 = ABCB1 (Homo sapiens, UniProt P08183); assay: Effect on ABCB1-mediated transport of fexofenadine through the Caco-2 cells monolayer; details: all tested concentrations (1–200 µM), Caco-2 monolayer
Chain of ABCB1 (P08183 whole entry): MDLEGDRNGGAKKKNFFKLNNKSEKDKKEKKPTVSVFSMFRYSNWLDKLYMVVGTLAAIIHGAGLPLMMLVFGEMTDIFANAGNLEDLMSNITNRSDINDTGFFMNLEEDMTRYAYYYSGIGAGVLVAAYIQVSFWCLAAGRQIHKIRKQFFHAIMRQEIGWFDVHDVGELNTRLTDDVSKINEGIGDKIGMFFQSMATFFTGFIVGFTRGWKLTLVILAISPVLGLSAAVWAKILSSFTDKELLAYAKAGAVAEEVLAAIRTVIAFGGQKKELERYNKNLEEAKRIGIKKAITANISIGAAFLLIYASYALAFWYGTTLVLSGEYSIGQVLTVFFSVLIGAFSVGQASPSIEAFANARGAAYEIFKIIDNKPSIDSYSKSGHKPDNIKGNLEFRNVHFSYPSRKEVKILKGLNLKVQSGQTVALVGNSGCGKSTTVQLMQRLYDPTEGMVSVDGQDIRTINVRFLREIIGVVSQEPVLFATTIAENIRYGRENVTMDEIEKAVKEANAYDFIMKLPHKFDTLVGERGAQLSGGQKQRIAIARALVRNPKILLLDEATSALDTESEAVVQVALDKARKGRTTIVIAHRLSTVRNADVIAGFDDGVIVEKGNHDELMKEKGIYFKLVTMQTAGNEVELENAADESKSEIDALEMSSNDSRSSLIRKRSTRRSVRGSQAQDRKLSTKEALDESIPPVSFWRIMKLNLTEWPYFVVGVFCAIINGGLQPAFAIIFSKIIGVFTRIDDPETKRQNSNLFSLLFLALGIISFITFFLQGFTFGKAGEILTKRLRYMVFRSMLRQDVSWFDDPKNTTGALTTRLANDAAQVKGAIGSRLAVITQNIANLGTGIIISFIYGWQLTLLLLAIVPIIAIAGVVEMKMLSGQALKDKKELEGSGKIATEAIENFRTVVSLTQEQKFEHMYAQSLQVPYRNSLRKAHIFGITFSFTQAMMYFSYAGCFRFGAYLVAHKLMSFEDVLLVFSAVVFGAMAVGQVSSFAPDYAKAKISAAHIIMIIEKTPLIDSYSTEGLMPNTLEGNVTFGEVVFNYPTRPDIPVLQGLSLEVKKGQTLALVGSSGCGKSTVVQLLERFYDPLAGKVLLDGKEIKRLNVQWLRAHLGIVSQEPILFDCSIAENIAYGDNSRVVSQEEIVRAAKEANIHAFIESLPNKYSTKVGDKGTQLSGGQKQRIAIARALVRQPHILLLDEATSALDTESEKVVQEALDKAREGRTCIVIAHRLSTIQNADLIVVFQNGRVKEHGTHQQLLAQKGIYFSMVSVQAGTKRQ
Description: Transport experiments were carried out in Transwell® systems (12 mm Transwell® with 0.4 µm Pore Polycarbonate Membrane Insert, Sterile, «Corning»). The Transwell® system consists of two chambers, apical and basolateral. […] The medium was changed every 2–3 days. The apical and basolateral chambers represent the luminal and blood/mesenteric lymph sides of the gastrointestinal tract, respectively.
The transepithelial electrical resistance (TEER) across the cell monolayers was monitored using a Millicell-ERS (electrical resistance system) to assess cell monolayer integrity. For transport studies, only monolayers with a TEER > 500 Ω cm^2 were used.
To study the roles of different parts of the EMHPS molecule for its action on ABCB1, experiments with succinic acid were also carried out.
Prior to the transport experiments, the culture media was aspirated, and the monolayers were washed twice with transport medium and preincubated with EMHPS, succinic acid, or verapamil for 30 min.
The data are presented as the mean ± SD from three monolayers.
The resulting sample of the transport medium (50 μL) was diluted in 150 μL of the mobile phase, and 100 μL of the resulting solution was injected into the chromatograph. A Phenomenex Synergi 4u Polar-RP 80A (250 × 4.6) chromatographic column was used for analysis. The separation temperature was 35 °C; the flow rate was 1 mL/min. Composition of the mobile phase: acetonitrile (128 mL), deionized water (267.4 mL), acetic acid (6.33 mL), triethylamine to pH = 6.7. […] Detection was carried out at a wavelength of 220 nm.
Half maximal inhibitory concentration (IC50) values were determined through nonlinear regression based on the three-parameter logistic function.

[2] = human, HEK293-SLCO1B1 cells, pH 7.4, probe atorvastatin 1 µM

Q: Which pharmacological activity [1] does the source give for CCc1nc(C)ccc1O[C@@H]1O[C@H](C(=O)O)[C@@H](O)[C@H](O)[C@H]1O [2-ethyl-6-methyl-3-hydroxypyridine glucuronide] here?
A: no pharmacological activity

Q: With CCc1nc(C)ccc1O.O=P(O)(O)O [2-ethyl-6-methyl-3-hydroxypyridine phosphate] as the molecule, how does the pharmacological activity [1] read?
A: no pharmacological activity

Q: Which results are given for CO[C@H]1/C=C/O[C@@]2(C)Oc3c(C)c(O)c4c(O)c(c(/C=N/N5CCN(C)CC5)c(O)c4c3C2=O)NC(=O)/C(C)=C\C=C\[C@H](C)[C@H](O)[C@@H](C)[C@@H](O)[C@@H](C)[C@H](OC(C)=O)[C@@H]1C [rifampicin]?
A: IC50 (SLCO1B1): 2.51 ± 1.35 µM; inhibition at 100 µM (SLCO1B1; [2]): 91.2%; inhibition at 500 µM (SLCO1B1; [2]): 95.4%

Q: For O=C(O)CCC(=O)O [succinic acid], which “effect on SLCO1B1 activity” value (SLCO1B1; all tested concentrations (1–500 µM), uptake of 1 µM atorvastatin) is on record?
A: did not have a significant effect

Q: And the “effect on Papp b-a, Papp a-b, and ER of fexofenadine transport” value (ABCB1)?
A: did not have a significant effect

Source: article PMC10674565 (Pharmaceuticals, 2023)
